Test results: patent US6586216B2 (Purdue Research Foundation, priority 1997, dated 2003)
Values joined by “and” are separate entries in the source; they are usually repeats but may differ in a detail not shown here. Equal values may be shown once. Read-outs that look alike come from different tables or passages of the source.

Assays:
[1] = molecular target: T1, wild type B. subtilis glutamine PRPP amidotransferase (Bacillus subtilis, UniProt P00497); experiment: Nucleotide binding by equilibrium dialysis; details: for Kd: apparent Kd, half-saturation of A and C sites
T1 construct: Enzymes of the B. subtilis class are synthesized with an NH2 terminal propeptide and an Fe—S center; made in house; host or cells: E. coli strain TX158 (purF) with plasmid pGZ1
T1 sequence (P00497 12-476): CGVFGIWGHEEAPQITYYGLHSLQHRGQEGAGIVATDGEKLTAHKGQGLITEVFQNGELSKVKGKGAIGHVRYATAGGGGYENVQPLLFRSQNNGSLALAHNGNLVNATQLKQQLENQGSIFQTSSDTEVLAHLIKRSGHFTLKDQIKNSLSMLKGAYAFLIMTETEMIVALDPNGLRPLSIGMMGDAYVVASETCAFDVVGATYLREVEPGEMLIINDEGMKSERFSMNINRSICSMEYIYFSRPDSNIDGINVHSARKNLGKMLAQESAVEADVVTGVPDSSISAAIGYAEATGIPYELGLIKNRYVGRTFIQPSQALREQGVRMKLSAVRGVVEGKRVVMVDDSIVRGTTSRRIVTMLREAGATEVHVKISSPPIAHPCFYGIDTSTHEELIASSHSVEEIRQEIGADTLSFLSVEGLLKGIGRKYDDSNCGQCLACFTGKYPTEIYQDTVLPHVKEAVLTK
Protocol: Nucleotide binding was determined by equilibrium dialysis using chambers of 150 μL that were separated by a 12000-14000 molecular weight dialysis membrane. […] In some experiments, the chambers with radioactive nucleotide also contained a fixed concentration of a second non-radioactive nucleotide. The other chamber contained 50 mM Tris-HCl (pH 7.5) and 50-200 μM enzyme, calculated as the subunit concentration, in a volume of 100 μL. Dialysis was carried out for 20 h at room temperature (˜22° C.) in a rotating apparatus. Samples of 80 μL were retrieved from each chamber and were counted for radioactivity. All experiments were performed in an anaerobic glovebox. […] Equilibrium binding data were fit to the Hill equation (Y=C [free ligand]^n/[…]+[free ligand]^n, where Y is the fractional saturation, C is the binding capacity, Kd is the dissociation constant, and n is the Hill coefficient) by nonlinear regression using Ultrafit software (Biosoft, Cambridge, UK).

[2] = molecular target: T1, wild type B. subtilis glutamine PRPP amidotransferase; experiment: Inhibition of enzyme activity by nucleotides (glutamate formation assay), wild type; format: biochemical; details: wild type; for Hill coefficient determined from inhibition data: PRPP present
Protocol: (§1) Enzyme activity was assayed by measuring the initial rate of formation of the product glutamate. […] Incubation was at 37° C. for 6 min. […] Reactions were quenched in a boiling water bath for 2 min, and glutamate was determined by the glutamate dehydrogenase method.
(§2) Inhibition by nucleotides was determined by the standard assay to which varied concentrations of nucleotide were added. Synergistic inhibition was determined by varying the concentration of one nucleotide in the presence of a fixed concentration of a second nucleotide. Relative activity (see FIG. 1) refers to the enzyme activity at a given concentration of the varied nucleotide relative to that in the absence of the varied nucleotide. I0.5 values were calculated from plots of relative activity versus varied nucleotide concentration.

[3] = molecular target: T2, Bacillus subtilis glutamine PRPP amidotransferase, wild type (Bacillus subtilis, UniProt P00497); experiment: Inhibition of enzyme activity (glutamate formation) by nucleotides, wild type; format: biochemical; details: for Hill coefficient from inhibition data: determined from inhibition data, PRPP present
T2 construct: Enzymes of the B. subtilis class are synthesized with an NH2 terminal propeptide; made in house; host or cells: E. coli strain TX158 (purF), plasmid pGZ1
Protocol: Plasmid pGZ1 was used for production of the wild type enzyme. […] For construction of mutants, the EcoRI-HindIII purF^+ DNA was transferred to pUC118 to yield pBsF. […] The resulting plasmids were named pBsF/S283A, pBsF/K305Q, pBsF/R307Q, and pBsF/S347A.
as §1, §2

[4] = molecular target: T3, Bacillus subtilis glutamine PRPP amidotransferase variant K305Q (Bacillus subtilis, UniProt P00497, K316Q); experiment: Inhibition of enzyme activity (glutamate formation) by nucleotides, mutant K305Q; format: biochemical
T3 construct: Enzymes of the B. subtilis class are synthesized with an NH2 terminal propeptide; made in house; host or cells: E. coli strain TX158 (purF), plasmid pBsF/K305Q
Excerpt: (§3) Plasmid pGZ1 was used for production of the wild type enzyme. Plasmid pGZ1 contains a 1.6 kb EcoRI-HindIII purF^+ fragment (Makaroff, C. A., Zalkin, H., Switzer, R. L., and Vollmer, S. J. (1983) J. Biol. Chem. 258, pp. 10586-10593) inserted into the corresponding sites of pUC18. For construction of mutants, the EcoRI-HindIII purF^+ DNA was transferred to pUC118 to yield pBsF. Mutations were constructed by the method of Kunkel et al. (Kunkel, T. A., Roberts, J. D., and Zakour, R. A. (1987) Methods Enzymol. 154, pp. 367-382) using pBsF phagemid DNA. The resulting plasmids were named pBsF/S283A, pBsF/K305Q, pBsF/R307Q, and pBsF/S347A.
Enzyme activity was assayed by measuring the initial rate of formation of the product glutamate. […] Incubation was at 37° C. for 6 min. The reaction was linear with time for at least 20 min under these conditions of assay. Reactions were quenched in a boiling water bath for 2 min, and glutamate was determined by the glutamate dehydrogenase method. The control reaction mixture contained all the components except PRPP.
as §2
Site directed mutagenesis was utilized to modify amino acids comprising the A site and C site domains of the glutamine PRPP amidotransferase. These modified forms of amidotransferase were analyzed to determine the impact of the mutations on end-product inhibition and enzymatic activity. Inhibition by nucleotides was determined as described in Example 1.

[5] = molecular target: T4, Bacillus subtilis glutamine PRPP amidotransferase variant S347A (Bacillus subtilis, UniProt P00497, S358A); experiment: biochemical; format: biochemical
T4 construct: Enzymes of the B. subtilis class are synthesized with an NH2 terminal propeptide; made in house; host or cells: E. coli strain TX158 (purF), plasmid pBsF/S347A
Excerpt: as §3, §1, §2
These modified forms of amidotransferase were analyzed to determine the impact of the mutations on end-product inhibition and enzymatic activity. Inhibition by nucleotides was determined as described in Example 1.

[6] = no fixed nucleotide, at saturation ± standard error
[7] = I0.5, no fixed nucleotide, 2.5 mM PRPP, pH 8.0, 37° C.
[8] = fixed GMP 1.0 mM, read-out: I0.5
[9] = I0.5, fixed GMP 1.4 mM (footnote c)
[10] = fixed ADP 0.5 mM, read-out: I0.5
[11] = no fixed nucleotide, 2.5 mM PRPP, pH 8.0, 37° C., read-out: I0.5
[12] = I0.5, fixed ADP 0.8 mM (footnote c)

T4 sequence (P00497 12-476 S358A): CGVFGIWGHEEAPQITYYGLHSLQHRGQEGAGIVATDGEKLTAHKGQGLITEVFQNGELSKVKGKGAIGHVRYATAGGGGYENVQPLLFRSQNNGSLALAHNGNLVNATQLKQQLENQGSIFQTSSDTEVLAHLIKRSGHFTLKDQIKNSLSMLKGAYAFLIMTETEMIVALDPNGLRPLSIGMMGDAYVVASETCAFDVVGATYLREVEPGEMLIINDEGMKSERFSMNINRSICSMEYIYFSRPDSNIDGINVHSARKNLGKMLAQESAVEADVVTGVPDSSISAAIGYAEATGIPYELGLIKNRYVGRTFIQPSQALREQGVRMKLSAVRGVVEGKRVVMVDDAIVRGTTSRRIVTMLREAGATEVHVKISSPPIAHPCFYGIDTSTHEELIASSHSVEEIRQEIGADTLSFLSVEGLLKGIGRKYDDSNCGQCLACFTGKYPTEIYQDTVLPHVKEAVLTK
T3 sequence (P00497 12-476 K316Q): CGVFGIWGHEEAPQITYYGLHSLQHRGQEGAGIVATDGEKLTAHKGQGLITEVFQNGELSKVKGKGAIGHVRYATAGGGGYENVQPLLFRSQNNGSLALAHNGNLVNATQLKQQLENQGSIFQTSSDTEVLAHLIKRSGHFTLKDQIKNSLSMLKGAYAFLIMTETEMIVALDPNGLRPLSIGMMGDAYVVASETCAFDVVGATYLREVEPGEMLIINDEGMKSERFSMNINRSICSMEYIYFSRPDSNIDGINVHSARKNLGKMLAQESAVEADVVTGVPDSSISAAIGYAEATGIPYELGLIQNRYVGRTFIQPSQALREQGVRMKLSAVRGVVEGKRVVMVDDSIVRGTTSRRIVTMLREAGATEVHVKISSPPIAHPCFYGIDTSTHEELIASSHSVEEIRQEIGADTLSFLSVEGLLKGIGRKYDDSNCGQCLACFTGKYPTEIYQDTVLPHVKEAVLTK

Nc1ncnc2c1ncn2[C@@H]1O[C@H](COP(=O)(O)OP(=O)(O)O)[C@@H](O)[C@H]1O [ADP]
synergistic binding (decrease of Kd by second nucleotide) ([1]; ADP-GMP pair): 20 fold
equiv bound ([1]; GMP fixed at either 0.25 or 1.0 mM): approximately 1 equiv
Capacity ([1]; fixed GMP 0.25 mM): 0.82 ± 0.11 equivalents bound per subunit
Hill coefficient ([1]; fixed GMP 0.25 mM): 1.8 ± 0.8
Capacity ([1]; fixed GMP 1.0 mM): 0.94 ± 0.14 equivalents bound per subunit
Hill coefficient ([1]; fixed GMP 1.0 mM): 1.7 ± 0.9
Capacity [1, 6]: 1.83 equivalents bound per subunit and 1.83 ± 0.26 equivalents bound per subunit
Hill coefficient ([1]; no fixed nucleotide, binding): 1.8 and 1.8 ± 0.65
Hill coefficient determined from inhibition data [2]: 3.8
syn. ([2]; fixed AMP 0.1 mM): 1.9
syn. (decreased I0.5 due to a second nucleotide) ([2]; fixed GMP 0.25 mM): 20
syn. ([2]; fixed GMP 0.50 mM): 29.0
syn. ([2]; fixed GMP 1.0 mM): 59
syn. ([2]; fixed GMP 2.0 mM): 118.0
syn. ([2]; fixed GMP 4.0 mM): 188.0
concentration required for 50% inhibition relative to that of AMP ([2]; single nucleotide): 5 fold
IC50 ([3]; I0.5, fixed GMP 0.25 mM): 240 µM
IC50 [3, 7]: 4700 µM
Hill coefficient from inhibition data [3]: 3.8
syn. (decreased I0.5 due to a second nucleotide) ([3]; fixed AMP 0.1 mM): 1.9 fold
syn. (decreased I0.5 due to a second nucleotide) ([3]; fixed GMP 0.25 mM): 20 fold and 20.0 fold
syn. (decreased I0.5 due to a second nucleotide) ([3]; fixed GMP 0.50 mM): 29.0 fold
IC50 ([3]; fixed GMP 0.50 mM, read-out: I0.5): 160 µM
syn. (decreased I0.5 due to a second nucleotide) ([3]; fixed GMP 1.0 mM): 59 fold and 59.0 fold
IC50 [3, 8]: 80 µM
syn. (decreased I0.5 due to a second nucleotide) ([3]; fixed GMP 2.0 mM): 118.0 fold
IC50 ([3]; fixed GMP 2.0 mM, read-out: I0.5): 40 µM
syn. (decreased I0.5 due to a second nucleotide) ([3]; fixed GMP 4.0 mM): 188.0 fold
concentration for 50% inhibition relative to AMP ([3]; no fixed nucleotide): 5 fold
IC50 ([4]; I0.5, fixed GMP 0.50 mM): 12000 µM
IC50 ([4]; I0.5, fixed GMP 5.0 mM): 320 µM
IC50 [4, 7]: 31000 µM
syn. (decreased I0.5 due to a second nucleotide) ([4]; fixed GMP 0.50 mM): 2.6 fold
syn. (decreased I0.5 due to a second nucleotide) ([4]; fixed GMP 5.0 mM): 97.0 fold
IC50 [5, 9]: 220 µM
IC50 [5, 7]: 8100 µM
syn. (decreased I0.5 due to a second nucleotide) ([5]; fixed GMP 1.4 mM (footnote c)): 37.0 fold

Nc1ncnc2c1ncn2[C@@H]1O[C@H](COP(=O)(O)O)[C@@H](O)[C@H]1O [AMP]
Kd ([1]; Kd, no fixed nucleotide): 214 µM and > 500 µM
increase in binding affinity by second nucleotide ([1]; by GMP or ADP): 2-3 fold
Hill coefficient ([1]; fixed ADP 0.25 mM): 2.3 ± 1.2
Capacity ([1]; fixed ADP 0.5 mM): approximately 0.4 equivalents bound per subunit
Hill coefficient ([1]; fixed GMP 1.0 mM): 2.1 ± 0.80
Capacity [1, 6]: 1.57 equivalents bound per subunit and 1.57 ± 0.27 equivalents bound per subunit
Hill coefficient ([1]; no fixed nucleotide, binding): 3.4 and 3.4 ± 1.8
Hill coefficient determined from inhibition data [2]: 3.3-3.8
syn. ([2]; fixed ADP 0.5 mM): 1.4
syn. ([2]; fixed GMP 1.0 mM): 1.0
Hill coefficient from inhibition data [3]: 3.3-3.8
syn. (decreased I0.5 due to a second nucleotide) ([3]; fixed ADP 0.5 mM): 1.4 fold
IC50 [3, 10]: 640 µM
syn. (decreased I0.5 due to a second nucleotide) ([3]; fixed GMP 1.0 mM): 1.0 fold
IC50 [3, 8]: 940 µM
IC50 [3, 11]: 900 µM
IC50 [4, 7]: 2500 µM
IC50 [5, 12]: 650 µM
IC50 [5, 9]: 1800 µM
IC50 [5, 7]: 1500 µM
syn. (decreased I0.5 due to a second nucleotide) ([5]; fixed ADP 0.8 mM (footnote c)): 2.3 fold
syn. (decreased I0.5 due to a second nucleotide) ([5]; fixed GMP 1.4 mM (footnote c)): 0.8 fold

Nc1nc2c(ncn2[C@@H]2O[C@H](COP(=O)(O)O)[C@@H](O)[C@H]2O)c(=O)[nH]1 [GMP]
increased C site binding affinity relative to IMP and AMP ([1]; ADP bound to the A site): 3 fold
Capacity ([1]; fixed ADP 0.5 mM): 1 equivalents bound per subunit and 0.98 ± 0.10 equivalents bound per subunit
Hill coefficient ([1]; fixed ADP 0.5 mM): 2.1 ± 1.0
Kd of GMP for the free enzyme, estimated assuming 20-fold synergism ([1]; no fixed nucleotide): approximately 500 μM
Kd ([1]; no fixed nucleotide): too weak to detect
syn. ([2]; fixed ADP 0.5 mM): 63
syn. ([2]; fixed AMP 0.1 mM): 0.95
concentration required for 50% inhibition relative to that of ADP ([2]; single nucleotide): 2 fold
concentration required for 50% inhibition relative to that of AMP ([2]; single nucleotide): 10 fold
syn. (decreased I0.5 due to a second nucleotide) ([3]; fixed ADP 0.5 mM): 63 fold and 63.0 fold
IC50 [3, 10]: 150 µM
syn. (decreased I0.5 due to a second nucleotide) ([3]; fixed AMP 0.1 mM): 0.95 fold
IC50 ([3]; fixed AMP 0.1 mM, read-out: I0.5): 9900 µM
concentration for 50% inhibition relative to ADP ([3]; no fixed nucleotide): 2 fold
concentration for 50% inhibition relative to AMP ([3]; no fixed nucleotide): 10 fold
IC50 [3, 11]: 9400 µM
IC50 ([4]; I0.5, fixed ADP 0.5 mM): 6000 µM
IC50 ([4]; I0.5, fixed ADP 2.5 mM): 1300 µM
IC50 [4, 7]: 50000 µM
syn. (decreased I0.5 due to a second nucleotide) ([4]; fixed ADP 0.5 mM): 8.3 fold
syn. (decreased I0.5 due to a second nucleotide) ([4]; fixed ADP 2.5 mM): 38.0 fold
IC50 [5, 12]: 440 µM
IC50 [5, 7]: 14000 µM
syn. (decreased I0.5 due to a second nucleotide) ([5]; fixed ADP 0.8 mM (footnote c)): 33.0 fold
I0.5 increase relative to wild type ([5]; inhibition at the C site): 3 fold
